Results: US6803186B2, “Compositions and methods for increasing amino acid absorption in mammals” (The IAMS Company, priority 2001, dated 2004)
Square brackets hold non-standard residues; d marks the D form. Peptide text beside a SMILES is read from it. Sar = CNCC(=O)O

Molecular target: T1, canine PepT1 (cPepT1) (Canis lupus familiaris, UniProt Q8WMX5)
T1 construct: endogenous in cells; host or cells: MDCK (Madin-Darby Canine Kidney) cells, whole-cell [3H]-GlySar uptake
T1 sequence (Q8WMX5 1-708): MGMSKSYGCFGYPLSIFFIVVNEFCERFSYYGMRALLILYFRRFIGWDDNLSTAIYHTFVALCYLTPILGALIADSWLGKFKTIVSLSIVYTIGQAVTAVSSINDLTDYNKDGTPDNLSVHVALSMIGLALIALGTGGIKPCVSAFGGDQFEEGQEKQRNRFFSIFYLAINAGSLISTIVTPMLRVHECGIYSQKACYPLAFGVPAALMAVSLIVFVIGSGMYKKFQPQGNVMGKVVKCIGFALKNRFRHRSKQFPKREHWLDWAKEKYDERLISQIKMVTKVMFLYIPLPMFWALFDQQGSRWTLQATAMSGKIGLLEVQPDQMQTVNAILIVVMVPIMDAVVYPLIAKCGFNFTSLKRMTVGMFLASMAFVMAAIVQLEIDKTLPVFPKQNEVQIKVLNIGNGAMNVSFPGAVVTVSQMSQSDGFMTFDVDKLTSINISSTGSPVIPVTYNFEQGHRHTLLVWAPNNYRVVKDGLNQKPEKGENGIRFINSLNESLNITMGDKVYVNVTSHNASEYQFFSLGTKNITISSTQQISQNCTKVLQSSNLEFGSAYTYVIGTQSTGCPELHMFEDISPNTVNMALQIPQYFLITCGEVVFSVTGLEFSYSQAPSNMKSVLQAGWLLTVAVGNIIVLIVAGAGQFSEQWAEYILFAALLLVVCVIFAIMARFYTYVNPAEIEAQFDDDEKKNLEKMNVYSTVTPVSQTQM
Assay: Substrate regulation of H+-dependent GlySar uptake capacity of MDCK cells cultured in DMEM (Example 3, Trials 1 and 2)
Type: cell-based
Conditions: 10 mM in DMEM, 24 h of culture
Experimental: All cells were plated (60,000/2 cm^2 well) and cultured (95% air/5% CO2, 37° C.) for 24 h in Dulbecco's Modified Eagle Media/10% fetal calf serum (FCS)/1%Antibiotic/Antimicrobial solution (ABAM) (DMEM media). Following these initial common culture conditions, cells then were cultured in DMEM, or DMEM that contained 10 mM of Camosine, GlyPhe, Phe, or Gly. Media were changed every 24 h. Media treatments (n=8) were as follows:
The measurement of [^3H]Glysarcosine uptake was performed by using a 24-well cluster tray method (Kilberg M S. Measurement of amino acid transport by hepatocytes in suspension and monolayer culture. Methods Enzym 1989; 173:564-575. Matthews J C, Aslanian A, McDonald K K, Yang W, Malandro M S, Novak D A, Kilberg M S. An expression system for mammalian amino acid transport using a stably maintained episomal vector. Anal Biochem 1997; 254:208-214), and used in Examples 1 and 2. Cells were cultured for 30 min in air at 37° C. in depletion medium (25 mM Hepes/Tris (pH 7.5), 140 mM NaCl, 5.4 mM KCl, 1.8 mM CaCl2, 0.8 mM MgSO4, and 5 mM glucose), to normalize intracellular nutrient pools before transport. The transport assays are initiated by replacing depletion medium with uptake medium (Depletion medium adjusted to pH 6.0) that contained 100 μM GlySar (5 μCi/mL, with [^3H]-GlySar supplying 2.88% of total GlySar). After a 30 minute incubation period, transport was terminated with four rinses of 4° C. depletion medium (pH 7.5). Two hundred and twenty μL of 10% trichloroacetic acid was added to each well, and the radioactivity of the supernatant quantified by liquid scintillation counting. The cells of each well are solubilized in 0.2 N NaOH/0.2% SDS and the protein quantified by using the modified Lowry assay, using bovine serum as a standard. Id. Peptide uptake will be reported as pmol* mg^−1 protein* 30 min^−1. Uptake measurements were taken after 24, 48, and 72 hours of culture in treatment media.
The MDCK cell line was maintained as described previously in the Methods section of Trial 1. […]

CN(CC(=O)O)C(=O)CN [GlySar, glycylsarcosine] (H-Gly-[Sar]-OH)
increase in GlySar uptake capacity over DMEM control media: about 30%
